From patent US12667614B2, “Bacterial microcompartment virus-like particles” (National University of Singapore, priority 2020, dated 2026)

What was measured:
Format in all cases: biochemical
[1] = target: T1, LacZ + shell: LacZ (E. coli beta-galactosidase), N-terminal His6, fused to S2CP(30), SEQ ID NO: 103, encapsulated in Cso-BMC (Cso-PSIIH) shell (Escherichia coli, UniProt P00722); assay: Steady-state kinetics of Cso-BMC encapsulated LacZ (ONPG hydrolysis)
T1 construct: homotetramer
Method: (§1) For APEX2, all reagents were made to the appropriate working concentrations using TBS-50/350 pH 8.0. Working solutions of guaiacol and H2O2, both at 10 mM, were prepared on the day of assay. The guaiacol solution was shaken vigorously at 30° C. to ensure complete dissolution before equilibration back to room temperature. The assay concentration for APEX2 was 10 nM, H2O2 1 mM and that for guaiacol ranged from 0.20 to 2.0 mM. Total reaction volume was 200 μL. Reactions were monitored by the absorbance of tetraguaiacol formed at 470 nm using a BioTek Synergy™ HT microplate reader. […] This time point was taken for initial rate, V0, measurement. Kinetic constants were obtained using non-linear least square Michaelis-Menten fitting in GraphPad Prism software.
(§2) For steady-state kinetics of LacZ, all reagents were made to the appropriate working concentrations using TBS-50/350 pH 8.0 supplemented with 1 mM MgCl2. Working solutions of ONPG at 10 mM were prepared from a 50 mM stock solution in DMSO on the day of assay. The assay concentration for LacZ was 10 nM and that for ONPG (ortho-nitrophenyl-β-galactoside) ranged from 0.050 to 1.5 mM. Total reaction volume was 100 μL. Hydrolysis of ONPG was tracked by absorbance measurements at 405 nm.
To probe the capacity of the Cso-BMC for encasing enzymes of considerably different molecular sizes, an evolved pea cytosolic ascorbate peroxidase (APEX2), a 27.0 kDa monomer [Lam et al., Nature Methods 12(1): 51-54 (2015)], and E. coli beta-galactosidase (LacZ), a 466.0 kDa homotetramer, were chosen for encapsulation [Golan, et al., Biochimica et Biophysica Acta (BBA)—Bioenergetics, 1293(2): 238-242; Lam et al., Nature Methods 12(1): 51-54 (2015)]. […] Enzymes were also N-terminally tagged with the hexahistidine (Hiss) tag to facilitate downstream removal of unencapsulated enzymes that might co-purify with shells (Nichols, Kennedy, & Tullman-Ercek, 2019). Cso-PSIIH shells co-expressed with enzymes were constructed and purified. SDS-PAGE analysis and Western blotting confirmed the presence of the target enzymes in shell samples (FIG. 18A-B) and the average copy numbers of enzymes per shell were estimated by Coomassie blue densitometry (Table 8) [Hagen, A., et al., Nature Communications 9: 2881 (2018); Nichols et al., Methods in Enzymology, 617, 155-186 (2019)].
Encapsulation of an enzyme into a protein shell is known to alter the enzyme's catalytic properties in some cases. To probe how encapsulation by the Cso-BMC might affect the catalytic efficiencies of APEX2 and LacZ, we performed steady-state kinetics of both free and encapsulated enzymes and fitted the data to the Michaelis-Menten model to obtain the turnover number (kcat), Michaelis-Menten constant (KM), and catalytic efficiency (kcat/KM) (Table 8, FIG. 19). […]

[2] = target: T2, Free LacZ (E. coli beta-galactosidase), N-terminal His6, fused to S2CP(30); LacZ-S2CP(30), SEQ ID NO: 103 (Escherichia coli, UniProt P00722); assay: Steady-state kinetics of free LacZ (ONPG hydrolysis); settings: free LacZ 10 nM; ONPG 0.050 to 1.5 mM; TBS-50/350 pH 8.0, 1 mM MgCl2; mean with standard error, triplicates
T2 construct: homotetramer
T2 sequence (P00722 other isoform, or with tags, fused parts or gaps): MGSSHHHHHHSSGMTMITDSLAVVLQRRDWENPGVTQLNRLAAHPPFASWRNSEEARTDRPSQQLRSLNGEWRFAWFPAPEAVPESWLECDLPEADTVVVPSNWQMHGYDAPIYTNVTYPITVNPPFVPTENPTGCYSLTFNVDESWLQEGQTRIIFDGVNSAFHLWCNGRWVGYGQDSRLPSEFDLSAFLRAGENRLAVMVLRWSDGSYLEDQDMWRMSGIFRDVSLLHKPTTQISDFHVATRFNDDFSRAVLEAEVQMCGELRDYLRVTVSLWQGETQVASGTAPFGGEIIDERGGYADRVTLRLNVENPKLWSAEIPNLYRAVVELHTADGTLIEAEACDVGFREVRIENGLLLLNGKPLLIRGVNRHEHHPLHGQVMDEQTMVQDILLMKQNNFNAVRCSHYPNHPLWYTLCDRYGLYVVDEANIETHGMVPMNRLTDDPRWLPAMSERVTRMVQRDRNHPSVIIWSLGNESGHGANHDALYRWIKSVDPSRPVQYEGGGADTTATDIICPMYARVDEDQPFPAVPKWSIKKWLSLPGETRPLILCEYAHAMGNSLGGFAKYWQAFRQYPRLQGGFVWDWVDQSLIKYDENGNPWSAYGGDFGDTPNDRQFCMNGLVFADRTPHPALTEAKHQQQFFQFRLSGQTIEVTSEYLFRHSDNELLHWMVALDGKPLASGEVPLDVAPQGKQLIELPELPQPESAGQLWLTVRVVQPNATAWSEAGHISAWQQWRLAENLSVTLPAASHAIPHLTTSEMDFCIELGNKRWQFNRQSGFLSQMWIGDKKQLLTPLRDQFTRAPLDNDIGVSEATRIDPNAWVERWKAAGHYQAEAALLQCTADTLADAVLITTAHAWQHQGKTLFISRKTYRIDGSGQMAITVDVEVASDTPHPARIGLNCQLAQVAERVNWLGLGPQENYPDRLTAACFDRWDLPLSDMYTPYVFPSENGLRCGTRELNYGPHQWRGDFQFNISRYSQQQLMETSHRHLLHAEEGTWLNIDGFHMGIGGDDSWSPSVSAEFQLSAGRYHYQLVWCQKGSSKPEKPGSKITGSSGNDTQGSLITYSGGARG
Method: as §1
as §2, with “nm. […]” for “nm.”

[3] = target: T3, APEX2 + shell: APEX2 (evolved pea cytosolic ascorbate peroxidase), N-terminal His6, fused to S2CP(30), SEQ ID NO: 110, encapsulated in Cso-BMC (Cso-PSIIH) shell (Glycine max, UniProt Q43758, A134P/E112K/K14D/W41F); assay: Steady-state kinetics of Cso-BMC encapsulated APEX2 (guaiacol oxidation); settings: decreased to
T3 sequence (Q43758 with tags, fused parts or gaps A134P/E112K/K14D/W41F): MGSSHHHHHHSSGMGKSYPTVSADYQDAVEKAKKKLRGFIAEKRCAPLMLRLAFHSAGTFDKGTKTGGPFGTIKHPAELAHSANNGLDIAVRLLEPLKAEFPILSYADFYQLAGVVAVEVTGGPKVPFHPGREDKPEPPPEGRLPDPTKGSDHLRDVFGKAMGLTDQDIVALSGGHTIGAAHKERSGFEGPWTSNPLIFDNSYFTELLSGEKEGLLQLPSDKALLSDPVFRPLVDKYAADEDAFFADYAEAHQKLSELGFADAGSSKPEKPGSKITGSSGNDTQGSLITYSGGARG
Method: as §1
To probe the capacity of the Cso-BMC for encasing enzymes of considerably different molecular sizes, an evolved pea cytosolic ascorbate peroxidase (APEX2), a 27.0 kDa monomer [Lam et al., Nature Methods 12(1): 51-54 (2015)], and E. coli beta-galactosidase (LacZ), a 466.0 kDa homotetramer, were chosen for encapsulation [Golan, et al., Biochimica et Biophysica Acta (BBA)—Bioenergetics, 1293(2): 238-242; Lam et al., Nature Methods 12(1): 51-54 (2015)]. […]

[4] = encapsulated LacZ 10 nM, ONPG 0.050 to 1.5 mM, TBS-50/350 pH 8.0, 1 mM MgCl2, mean with standard error, triplicates

T1 sequence (P00722 other isoform, or with tags, fused parts or gaps): as the sequence (P00722 other isoform, or with tags, fused parts or gaps) above

Row | SMILES | kcat/KM of encapsulated LacZ compared with the free enzyme ([1]; comparison in words with free LacZ) | Km [1, 4] [µM] | kcat [1, 4] [s⁻¹] | kcat/KM [1, 4] | kcat [2] [s⁻¹] | kcat/KM [2] | kcat/KM of encapsulated APEX2 relative to the free enzyme [3]
1 | O=[N+]([O-])c1ccccc1O[C@@H]1O[C@H](CO)[C@H](O)[C@H](O)[C@H]1O [ONPG, ortho-nitrophenyl-β-galactoside] | not significantly different from the free enzyme | 140 ± 20 | 200 ± 14 | 14.3 ± 2.27 × 10^5 (s^−1 · M^−1) | 258 ± 17 | 15.2 ± 2.05 × 10^5 (s^−1 · M^−1) | –
2 | COc1ccccc1O [guaiacol] | – | – | – | – | – | – | approximately 30%
